In patent publication EP0200211A1, “Diagnostic radiopharmaceutical compounds” (THE RESEARCH FOUNDATION OF STATE UNIVERSITY OF NEW YORK, priority 1985, dated 1986):

Assay: Autoradiogram comparison of rat brain distribution of radioactivity after intravenous injection
Type: in vivo, Sprague-Dawley male rat
Details: autoradiograms at 2 and 15 minutes after injection, statement concerns the second (15 minute) autoradiogram
From the text: • Figure 1 is an autoradiogram of rat brain distribution of radioactivity two (2) minutes after intravenous injection with a radioactive compound of the prior art. • Figure 2 is an autoradiogram of rat brain distribution of radioactivity fifteen (15) minutes after intravenous injection with a radioactive compound of the prior art. • Figure 3 is an autoradiogram of rat brain distribution of radioactivity two (2) minutes after intravenous injection with a radioactive compound of the invention. • Figure 4 is an autoradiogram of rat brain distribution of radioactivity fifteen (15) minutes after intravenous injection with a radioactive compound of the invention.
Autoradiograms were made of Sprague-Dawley male rat brains of animals that were intravenously injected with 6-[N,N-diethylamino]methyl-3,3,10,10-tetramethyl-1,2-dithia-5,8-diazacylcodecane technetium-99m complex of the invention and 10,10,13,13-tetramethyl-11,12-dithia-8,15-diazaspiro-[5.9)pentadecane-technetium-99m complex of the prior art. The autoradiograms were taken at 2 and 15 minute intervals after injection.

Compound: CC1(C)CNCC2(CCCCC2)NCC(C)(C)SS1.[99Tc] [10,10,13,13-tetramethyl-11,12-dithia-8,15-diaza spiro [5.9] pentadecane-technetium-99m complex]
- definition of the autoradiogram of rat brain: lack of clear definition

Compound: CCN(CC)CC1CNCC(C)(C)SSC(C)(C)CN1.[99Tc] (centres unmarked) [6-[N,N-diethylamino]methyl-3,3,10,10-tetramethyl-1,2-dithia-5,8-diazacylcodecane technetium-99m complex]
- definition of the autoradiogram of rat brain: sharp definition obtained and retained
